Reference: patent US5147876A, “2,6-di,2,4,6-, 2,5,6-tri and 2,4,5,6-tetra-substituted pyrimidines, their pharmaceutically acceptable salts, pharmaceutical compositions containing same and their use in the treatment of neurological diseases” (Mitsui Petrochemical Industries, Ltd., priority 1988, dated 1992)

Experiments:
Acute toxicity on mice = format: in vivo; details: mouse, in vivo, ip, 24 hours after administration; read-out: Estimated LD50
Method: The acute toxicity of the compounds of the invention was examined by the following method.
Male ddy-strain 5-week old mice, 4-6- per group, were used as experimental animals. Each of the compounds was intraperitoneally (i.p.), and the toxicity of the compound was assessed 24 hours after the administration.

[1] = system: NS-20Y (mouse neuroblastoma cells); test: Activity on NS-20Y cells: appearance of neurites; format: cell-based
Method: The effects of the compounds of this invention on neuroblastoma cells were examined by the following method.
Mouse neuro 2a cells in the logarithmic growth period in the Dulbecco's modified Eagle's medium DMEM, containing 100 units/ml of penicillin G sodium and 100 micrograms/ml of streptomycin sulfate]containing 10 % of FCS were seeded in a 48-well plate so that the number of cells was 1,000 cells/well, and cultured for one day in 0.25 ml of the culture fluid in each well in an incubator containing 5 % of carbon dioxide gas in air at 37° C. Then, a 4 % aqueous glutaraldehyde solution in the same amount as a medium (0.25 ml) was added, and the culture fluid was left to stand at room temperature for 2 hours to fix the cells. After washing with water, a 0.05 % aqueous solution of methylene blue was added to stain the cells Under a microscope, the number of cells containing outgrown neurites (cells having at least one neurite with a length of at least two times as large as the long diameter of the cell) was counted visually, and the proportion of these cells in the entire cells was calculated. The well was observed over 5 or more visual fields (at least 2 % of the entire surface area of the well) continuous to the left and right from a mark put at the center of the well, and more than 200 cells was counted. One drug compound was used in 6 different concentrations at most, and three runs were conducted for each concentrations.
Mouse neuroblastoma cells NS-20Y were similarly cultured in a dish coated with polyornithine, and the effects of the compounds were examined.

[2] = system: neuro-2a (mouse neuroblastoma cells); test: Action on neuro-2a: proportion of cells containing outgrown neurites; format: cell-based; details: mean ± S.D.
In short: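 Mouse neuro-2a cells at 1,000 cells/well in DMEM with 10% FCS were cultured one day at 37 °C, 5% CO2, then glutaraldehyde-fixed and methylene-blue-stained. The proportion of cells bearing a neurite at least twice the cell's long diameter was counted over >200 cells; up to 6 concentrations, triplicate runs.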

Row | SMILES | LD50 at 24 h (Acute toxicity on mice) | Number of cells having neurites with a length at least two times the diameter of each cell/total number of cells ([2]; 0.03 mM) | Number of cells having neurites with a length at least two times the diameter of each cell/total number of cells ([2]; 0.1 mM) | Number of cells having neurites with a length at least two times the diameter of each cell/total number of cells ([2]; 0.3 mM) | Number of cells having neurites with a length at least two times the diameter of each cell/total number of cells ([2]; 1 mM) | Number of cells in which neurites appeared/total number of cells ([1]; 24 hours, 0.1 mM) | also measured
1 | CCCCN(CCCC)c1nccc(N(C)C(=O)c2ccccc2)n1 [Compound 112] | > 1000 mg/kg | 4.8 ± 0.1% | 18.6 ± 5.2% | 2.6 ± 0.6% | 7.6 ± 4.9% | – | Number of cells in which neurites appeared/total number of cells ([1]; 24 hours, 0.025 mM): 4/51; Number of cells in which neurites appeared/total number of cells ([1]; 48 hours, 0.01 mM): 4/49; Number of cells in which neurites appeared/total number of cells ([1]; 48 hours, 0.025 mM): 9/50
2 | CN(C(=O)c1ccccc1)c1ccnc(N2CCCC2)n1 [Compound 120] | > 1000 mg/kg | – | 4.9 ± 1.0% | 7.5 ± 4.1% | – | – | Number of cells in which neurites appeared/total number of cells ([1]; 24 hours, 0.5 mM): 23/50; Number of cells in which neurites appeared/total number of cells ([1]; 48 hours, 0.5 mM): 4/50
3 | CC(=O)N(C)c1ccnc(N2CCCCC2)n1 [Compound 128] | > 1000 mg/kg | – | – | 9.9 ± 0.6% | 19.8 ± 2.8% | – | Number of cells in which neurites appeared/total number of cells ([1]; 24 hours, 0.3 mM): 4/49; Number of cells in which neurites appeared/total number of cells ([1]; 24 hours, 1.0 mM): 23/55; Number of cells in which neurites appeared/total number of cells ([1]; 48 hours, 0.3 mM): 31/50; Number of cells in which neurites appeared/total number of cells ([1]; 48 hours, 0.5 mM): 21/50; Number of cells having neurites with a length at least two times the diameter of each cell/total number of cells ([2]; 0.5 mM): 9.1 ± 0.7%; Number of cells having neurites with a length at least two times the diameter of each cell/total number of cells ([2]; 2 mM): 14.3 ± 2.4%
4 | CN(C(=O)c1ccccc1)c1ccnc(N2CCCCC2)n1 [Compound 136] | > 1000 mg/kg | – | 11.6 ± 6.3% | 12.1 ± 2.9% | – | 9/50 | Number of cells in which neurites appeared/total number of cells ([1]; 24 hours, 0.4 mM): 42/50; Number of cells in which neurites appeared/total number of cells ([1]; 48 hours, 0.4 mM): 15/50
5 | CC1CCN(c2nccc(N(C)C(=O)c3ccccc3)n2)CC1 [Compound 144] | > 1000 mg/kg | – | 13.7 ± 7.8% | 33.8 ± 8.6% | – | 37/50 | Number of cells in which neurites appeared/total number of cells ([1]; 48 hours, 0.025 mM): 6/50; Number of cells in which neurites appeared/total number of cells ([1]; 48 hours, 0.05 mM): 8/52; Number of cells in which neurites appeared/total number of cells ([1]; 48 hours, 0.1 mM): 31/50
6 | CN(C(=O)c1ccccc1)c1ccnc(N2CCC(C(C)(C)C)CC2)n1 [Compound 152] | > 1000 mg/kg | 6.2 ± 2.3% | 33.8 ± 4.7% | – | – | – | Number of cells in which neurites appeared/total number of cells ([1]; 24 hours, 0.05 mM): 3/50; Number of cells in which neurites appeared/total number of cells ([1]; 48 hours, 0.025 mM): 2/50
7 | O=C(Nc1ccnc(N2CCC(c3ccccc3)CC2)n1)c1ccccc1 [Compound 160] | > 1000 mg/kg | – | 11.3 ± 6.3% | 6.7 ± 4.3% | – | – | Number of cells in which neurites appeared/total number of cells ([1]; 24 hours, 0.5 mM): 10/53; Number of cells in which neurites appeared/total number of cells ([1]; 48 hours, 0.5 mM): 2/50
8 | CN(C(=O)C=Cc1ccccc1)c1ccnc(N2CCC(c3ccccc3)CC2)n1 [Compound 170-2] | 500 to 1000 mg/kg | – | 14.7 ± 1.1% | 5.6 ± 2.1% | 13.9 ± 3.0% | 3/50 | Number of cells in which neurites appeared/total number of cells ([1]; 48 hours, 0.1 mM): 2/50
9 | CCN(C(=O)c1ccccc1)c1ccnc(N2CCC(c3ccccc3)CC2)n1 [Compound 176] | > 1000 mg/kg | 5.3 ± 1.9% | 3.2 ± 3.1% | – | – | 8/50 | Number of cells in which neurites appeared/total number of cells ([1]; 48 hours, 0.02 mM): 2/50
10 | CCCN(C(=O)c1ccccc1)c1ccnc(N2CCC(c3ccccc3)CC2)n1 [Compound 184] | > 1000 mg/kg | – | 18.8 ± 4.7% | 16.0 ± 2.4% | – | 5/48 | Number of cells in which neurites appeared/total number of cells ([1]; 24 hours, 0.02 mM): 8/50; Number of cells in which neurites appeared/total number of cells ([1]; 48 hours, 0.02 mM): 3/50
11 | O=C(c1ccccc1)N(Cc1ccccc1)c1ccnc(N2CCC(c3ccccc3)CC2)n1 [Compound 192] | 500 to 1000 mg/kg | – | – | 12.1 ± 1.5% | 14.6 ± 1.0% | – | Number of cells in which neurites appeared/total number of cells ([1]; 24 hours, 0.4 mM): 23/50; Number of cells in which neurites appeared/total number of cells ([1]; 48 hours, 0.4 mM): 4/50
12 | CC(=O)N(C)c1ccnc(N2CCC(c3ccccc3)CC2)n1 [Compound 208] | > 1000 mg/kg | – | – | – | 10.6 ± 1.5% | 27/53 | Number of cells in which neurites appeared/total number of cells ([1]; 24 hours, 0.25 mM): 17/51; Number of cells in which neurites appeared/total number of cells ([1]; 48 hours, 0.1 mM): 28/50; Number of cells having neurites with a length at least two times the diameter of each cell/total number of cells ([2]; 0.5 mM): 7.2 ± 2.3%; Number of cells having neurites with a length at least two times the diameter of each cell/total number of cells ([2]; 2 mM): 11.1 ± 1.2%; Number of cells having neurites with a length at least two times the diameter of each cell/total number of cells ([2]; 3 mM): 8.0 ± 4.0%
13 | CON(C(=O)c1ccccc1)c1ccnc(N2CCC(c3ccccc3)CC2)n1 [Compound 2318] | 500 to 1000 mg/kg | 7.7 ± 1.4% | 35.1 ± 1.3% | 18.6 ± 5.2% | 8.8 ± 1.3% | – | –
14 | CN(C(=O)N1CCOCC1)c1ccnc(N2CCC(c3ccccc3)CC2)n1 [Compound 2326] | 500 to 1000 mg/kg | 4.6 ± 1.4% | 8.3 ± 2.6% | – | – | – | –
15 | CN(C(=O)Oc1ccccc1)c1ccnc(N2CCC(c3ccccc3)CC2)n1 [Compound 2334] | > 1000 mg/kg | 13.2 ± 0.2% | 16.7 ± 0.8% | – | – | – | –
16 | CN(C(=O)c1ccccc1)c1ccnc(NC2CN3CCC2CC3)n1 (stereo not drawn) [Compound 2342] | 500 to 1000 mg/kg | 5.9 ± 2.1% | 11.4 ± 1.4% | – | – | – | –
17 | CN(C(=O)c1ccccc1)c1ccnc(N2CCC(OS(=O)(=O)c3ccccc3)CC2)n1 [Compound 2350] | 500 to 1000 mg/kg | – | – | 5.9 ± 1.5% | 8.3 ± 2.0% | – | –
18 | CN1C(=O)Cc2cnc(N3CCN(C(c4ccc(Cl)cc4)c4ccc(Cl)cc4)CC3)nc21 [Compound 3176] | 500 to 1000 mg/kg | 7.3 ± 3.3% | 23.1 ± 4.8% | 21.2 ± 4.9% | 14.6 ± 5.0% | – | –
19 | CN1C(=O)Cc2cnc(N3CCN(C(c4ccc(F)cc4)c4ccc(F)cc4)CC3)nc21 [Compound 3184] | 500 to 1000 mg/kg | 3.7 ± 1.1% | 13.9 ± 2.3% | 18.4 ± 1.9% | 17.0 ± 2.1% | – | –
